The subject of one assay is human NOD2 signaling. The assay is described as follows: Inhibition of human NOD2 signaling in HEK-Blue-hNOD2 cells (L18-MDP stimulated, SEAP reporter). The class given is cell-based. To be noted: Homo sapiens, HEK-Blue hNOD2, HEK-Blue-hNOD2 cells, NOD2 ligand stimulation, SEAP reporter; read-out: hNOD2 IC50. A digest of the protocol: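 Read-out is SEAP absorbance at 620 nm after 3 h QUANTI-Blue development of supernatant from HEK293 cells carrying NOD2 and a SEAP reporter (12500/well). Cells got compound (10 points, 3-fold dilutions) and 0.5 ng/mL L18-MDP for 24 h at 37 °C; percent inhibition vs stimulated/unstimulated controls, 4-parameter IC50.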

The target in assay [1] is T1, RIPK2 and XIAP protein-protein interaction (Homo sapiens, UniProt O43353).
T1 construct: the N-terminus of full-length RIPK2 was appended with the HaloTag fusion protein; expressed in transfected cells; host or cells: HEK293T
Put plainly: Inhibition of the interaction of RIPK2 with XIAP (NanoBRET in HEK293T cells). The class given is cell-based. The following applies: RIPK2 HaloTag / XIAP NanoLuc, read-out: NanoBRET Scaffolding IC50. The text has this: An assay measuring the RIPK2 and XIAP protein-protein interaction was generated using the NanoBRET protein:protein interaction system (Promega) which measures the energy transfer from a bioluminescent protein donor (NanoLuc fusion protein) to a fluorescent protein acceptor (Halotag fusion protein). In this assay, the C-terminus of full-length XIAP was appended with the NanoLuc fusion protein and the N-terminus of full-length RIPK2 was appended with the HaloTag fusion protein. Assay medium consisted of Opti-MEM I reduced serum medium with no phenol red plus 4% heat inactivated FBS. Transfection reagents were combined in a microfuge tube as follows: 400 μL of assay medium, 8 μL of vector with N-terminus of RIPK2 HaloTag fusion protein (vector concentration at 1 μg/μL), 0.8 μL of vector with C-terminus of XIAP NanoLuc fusion protein (vector concentration at 1 μg/μL), and 24 μL of FuGENE HD transfection reagent (Promega, catalogue number E2312). […] Test compounds were prepared into a 10 mM DMSO solution and were serially diluted into 10 points using a 3-fold dilution in a 384 well plate using a TECAN EV0200.
Method: HEK293T cells were transfected with the RIPK2 HaloTag fusion and XIAP NanoLuc fusion vectors in suspension. […] Transfection reagents were pre-mixed and incubated at room temperature for 30 minutes. Then the total transfection reagent mixture was added dropwise to the 16 mL cell suspension and mixed gently. 40 μL of the cells and transfection reagent suspension was plated into a white 384 well plate and incubated at 37° C. in a CO2 incubator for 24 hours. […] Lastly, a 3× solution of NanoBRET Nano-Glo substrate in Opti-MEM I reduced serum media (no phenol red; 20 μL total volume) was added to each well and incubated for 2-3 minutes at room temperature. The plate was then measured using 460 nm filter (donor emission) and 618 nm filter (acceptor emission) in an EnVision multimode plate reader (PerkinElmer). The NanoBRET ratio values were determined by dividing the acceptor emission value by the donor emission value for each sample.

The target of another assay is T2, RIPK2 enzyme (Homo sapiens, UniProt O43353).
T2 construct: purchased Carna 09-128
The assay is described as follows: RIPK2 inhibition (ADP-Glo Kinase Assay). It is filed as biochemical. The following applies: RIPK2 5 nM, ATP 150 μM, MBP substrate, read-out: RIPK2 IC50. A digest of the protocol:
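Swine MBP substrate; compound and 5 nM RIPK2 first mixed for 30 min at room temperature; buffer pH 7.5 HEPES 50 mM with 10 mM MgCl2, 2 mM DTT, 1 mM EGTA, Brij-35, BSA.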

SMILES strings stand for the structures.

T1 sequence (O43353 whole entry, the tested form may be a part): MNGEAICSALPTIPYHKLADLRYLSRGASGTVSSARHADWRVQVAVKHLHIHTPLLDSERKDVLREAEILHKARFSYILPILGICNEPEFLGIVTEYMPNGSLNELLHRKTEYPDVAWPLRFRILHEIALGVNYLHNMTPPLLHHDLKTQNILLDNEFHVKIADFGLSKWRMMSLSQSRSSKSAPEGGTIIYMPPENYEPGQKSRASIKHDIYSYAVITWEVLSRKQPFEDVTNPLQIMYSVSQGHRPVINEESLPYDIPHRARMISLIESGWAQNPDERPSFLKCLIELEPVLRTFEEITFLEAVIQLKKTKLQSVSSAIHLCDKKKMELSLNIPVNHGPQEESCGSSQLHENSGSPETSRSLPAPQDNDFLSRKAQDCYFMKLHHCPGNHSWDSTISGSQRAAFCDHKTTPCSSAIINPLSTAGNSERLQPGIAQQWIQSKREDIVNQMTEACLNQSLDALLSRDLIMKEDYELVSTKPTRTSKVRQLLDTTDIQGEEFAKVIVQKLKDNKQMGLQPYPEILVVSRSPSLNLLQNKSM
T2 sequence (O43353 1-299 limits assumed): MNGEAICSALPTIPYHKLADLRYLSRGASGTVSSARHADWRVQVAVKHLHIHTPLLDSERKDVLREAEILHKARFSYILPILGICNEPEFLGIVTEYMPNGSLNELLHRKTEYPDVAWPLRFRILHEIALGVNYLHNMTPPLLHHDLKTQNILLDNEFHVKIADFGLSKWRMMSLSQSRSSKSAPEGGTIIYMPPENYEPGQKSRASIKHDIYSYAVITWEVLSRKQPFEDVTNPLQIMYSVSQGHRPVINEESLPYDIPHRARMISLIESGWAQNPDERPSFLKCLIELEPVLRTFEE

In the case of `CNC(=O)c1ccc2nccc(Oc3c(C)cc(CC(=O)Nc4cnn(C(C)(C)C)c4)cc3F)c2c1` [Compound 469, 4-(4-(2-((1-(tert-butyl)-1H-pyrazol-4-yl)amino)-2-oxoethyl)-2-fluoro-6-methylphenoxy)-N-methylquinoline-6-carboxamide], the results for the IC50 (with human NOD2 signaling; in assay [1]; at RIPK2 enzyme) were 1.6 nM, 6.6 nM and less than 2.5 nM, respectively.
The corresponding values for `Cc1cc(CC(=O)Nc2cnn(C(C)(C)C)c2)c(F)cc1Oc1ccnc2ccc(C(=O)N3[C@H](C)CNC[C@@H]3C)cc12` [Compound 470, N-(1-(tert-butyl)-1H-pyrazol-4-yl)-2-(4-((6-((2R,6S)-2,6-dimethylpiperazine-1-carbonyl)quinolin-4-yl)oxy)-2-fluoro-5-methylphenyl)acetamide] are 1.1 nM, 13.1 nM and less than 2.5 nM.
The corresponding values for `Cc1cc(CC(=O)Nc2cnn(C(C)(C)C)c2)c(F)cc1Oc1ccnc2ccc(C(=O)N3C[C@@H]4C[C@H]3CN4)cc12` [Compound 471, 2-(4-((6-((1S,4S)-2,5-diazabicyclo[2.2.1]heptane-2-carbonyl)quinolin-4-yl)oxy)-2-fluoro-5-methylphenyl)-N-(1-(tert-butyl)-1H-pyrazol-4-yl)acetamide] are 9.9 nM, 1020 nM and less than 2.5 nM.
The corresponding values for `Cc1cc(CC(=O)Nc2cnn(C(C)(C)C)c2)cc(Cl)c1Oc1ccnc2ccc(S(C)(=O)=O)cc12` [Compound 473, N-(1-(tert-butyl)-1H-pyrazol-4-yl)-2-(3-chloro-5-methyl-4-((6-(methylsulfonyl)quinolin-4-yl)oxy)phenyl)acetamide] are 7.8 nM, 171 nM and less than 2.5 nM.
Regarding `Cc1cc(CC(=O)Nc2cnn(C(C)(C)C)c2)c(Cl)cc1Oc1ccnc2ccc(S(C)(=O)=O)cc12` [Compound 474, N-(1-(tert-butyl)-1H-pyrazol-4-yl)-2-(2-chloro-5-methyl-4-((6-(methylsulfonyl)quinolin-4-yl)oxy)phenyl)acetamide], the values for the IC50 (with human NOD2 signaling; in assay [1]; at RIPK2 enzyme) were 95.6 nM, 621 nM and 8.1 nM, respectively.
For `Cc1cc(CC(=O)Nc2cnn(C(C)(C)C)c2)c(F)cc1Oc1ccnc2ccc(-c3nccnc3C)cc12` [Compound 476, N-(1-(tert-butyl)-1H-pyrazol-4-yl)-2-(2-fluoro-5-methyl-4-((6-(3-methylpyrazin-2-yl)quinolin-4-yl)oxy)phenyl)acetamide], in that order: 5.9 nM, 52.1 nM and less than 2.5 nM.
For `Cc1cc(CC(=O)Nc2cnn(C(C)(C)C)c2)c(F)cc1Oc1ccnc2ccc(-c3ncncc3C)cc12` [Compound 477, N-(1-(tert-butyl)-1H-pyrazol-4-yl)-2-(2-fluoro-5-methyl-4-((6-(5-methylpyrimidin-4-yl)quinolin-4-yl)oxy)phenyl)acetamide], in that order: 5.4 nM, 38.7 nM and less than 2.5 nM.
For `Cc1cc(CC(=O)Nc2cnn(C(C)(C)C)c2)c(F)cc1Oc1ccnc2ccc(-c3c[nH]nc3C)cc12` [Compound 479, N-(1-(tert-butyl)-1H-pyrazol-4-yl)-2-(2-fluoro-5-methyl-4-((6-(3-methyl-1H-pyrazol-4-yl)quinolin-4-yl)oxy)phenyl)acetamide], in that order: 1.4 nM, 5.8 nM and less than 2.5 nM.
For the compound `CNCc1nnc(-c2ccc3nccc(Oc4cc(F)c(CC(=O)Nc5cnn(C(C)(C)C)c5)cc4C)c3c2)o1` [Compound 481, N-(1-(tert-butyl)-1H-pyrazol-4-yl)-2-(2-fluoro-5-methyl-4-((6-(5-((methylamino)methyl)-1,3,4-oxadiazol-2-yl)quinolin-4-yl)oxy)phenyl)acetamide], the results for the IC50 (with human NOD2 signaling; in assay [1]; at RIPK2 enzyme) were 4.2 nM, 4.5 nM and less than 2.5 nM, respectively.
For `Cc1nnc(-c2ccc3nccc(Oc4cc(F)c(CC(=O)Nc5cnn(C(C)(C)C)c5)cc4C)c3c2)o1` [Compound 482, N-(1-(tert-butyl)-1H-pyrazol-4-yl)-2-(2-fluoro-5-methyl-4-((6-(5-methyl-1,3,4-oxadiazol-2-yl)quinolin-4-yl)oxy)phenyl)acetamide], in that order: 0.3 nM, 4.6 nM and less than 2.5 nM.
For `Cc1cc(CC(=O)Nc2cnn(C(C)(C)C)c2)ccc1Oc1ccnc2ccc(C(N)=O)cc12` [Compound 487, 4-(4-(2-((1-(tert-butyl)-1H-pyrazol-4-yl)amino)-2-oxoethyl)-2-methylphenoxy)quinoline-6-carboxamide], in that order: 0.3 nM, 47.5 nM and less than 2.5 nM.
The corresponding values for `CNC(=O)c1ccc2nccc(Oc3ccc(CC(=O)Nc4cnn(C(C)(C)C)c4)cc3C)c2c1` [Compound 488, 4-(4-(2-((1-(tert-butyl)-1H-pyrazol-4-yl)amino)-2-oxoethyl)-2-methylphenoxy)-N-methylquinoline-6-carboxamide] are 0.2 nM, 3.4 nM and less than 2.5 nM.
As for `Cc1cc(CC(=O)Nc2cnn(C(C)(C)C)c2)ccc1Oc1ccnc2cc(F)c(C(N)=O)cc12` [Compound 489, 4-(4-(2-((1-(tert-butyl)-1H-pyrazol-4-yl)amino)-2-oxoethyl)-2-methylphenoxy)-7-fluoroquinoline-6-carboxamide], the IC50 was 0.1 nM in the assay on human NOD2 signaling, 7.1 nM in assay [1] and less than 2.5 nM on RIPK2 enzyme.
The corresponding values for `CNC(=O)c1cc2c(Oc3ccc(CC(=O)Nc4cnn(C(C)(C)C)c4)cc3C)ccnc2cc1F` [Compound 490, 4-(4-(2-((1-(tert-butyl)-1H-pyrazol-4-yl)amino)-2-oxoethyl)-2-methylphenoxy)-7-fluoro-N-methylquinoline-6-carboxamide] are 0.1 nM, 24.2 nM and less than 2.5 nM.
For `[2H]C([2H])([2H])NC(=O)c1cc2c(Oc3cc(F)c(CC(=O)Nc4cnn(C(C)(C)C)c4)cc3C)ccnc2cc1F` [Compound 494, 4-(4-(2-((1-(tert-butyl)-1H-pyrazol-4-yl)amino)-2-oxoethyl)-5-fluoro-2-methylphenoxy)-7-fluoro-N-(methyl-d3)quinoline-6-carboxamide], the IC50 in the assay on human NOD2 signaling was 0.4 nM; in assay [1] it was 20.5 nM; at RIPK2 enzyme it was less than 2.5 nM.
The corresponding values for `Cc1cc(CC(=O)Nc2cnn(C(C)(C)C)c2)ccc1Oc1ccnc2cc(C)c(S(C)(=O)=O)cc12` [Compound 495, N-(1-(tert-butyl)-1H-pyrazol-4-yl)-2-(3-methyl-4-((7-methyl-6-(methylsulfonyl)quinolin-4-yl)oxy)phenyl)acetamide] are 0.5 nM, 70.8 nM and less than 2.5 nM.
For `Cc1cc(CC(=O)Nc2cnn(C(C)(C)C)c2)c(F)cc1Oc1ccnc2cc(C)c(S(C)(=O)=O)cc12` [Compound 496, N-(1-(tert-butyl)-1H-pyrazol-4-yl)-2-(2-fluoro-5-methyl-4-((7-methyl-6-(methylsulfonyl)quinolin-4-yl)oxy)phenyl)acetamide], in that order: 0.5 nM, 127 nM and less than 2.5 nM.
The corresponding values for `CC(C)(C)n1cc(NC(=O)Cc2cc(Cl)c(Oc3ccnc4ccc(C(N)=O)cc34)cc2F)cn1` [Compound 497, 4-(4-(2-((1-(tert-butyl)-1H-pyrazol-4-yl)amino)-2-oxoethyl)-2-chloro-5-fluorophenoxy)quinoline-6-carboxamide] are 0.6 nM, 10.8 nM and less than 2.5 nM.

The record behind these values is patent publication US12624018B1, “Inhibitors of RIPK2 and medical uses thereof” (Odyssey Therapeutics, Inc., priority 2022, dated 2026).
